Laboratory results: patent US20230355613A1, “METHODS FOR TREATING PANCREATIC DUCTAL ADENOCARCINOMA” (HEALTH RESEARCH, INC., priority 2022, published 2023)

Key:
MiaPaCa2 cells [1] = assay: mRNA expression of RD histones (H2B, H3) by qPCR; assay type: cell-based, human
Excerpt: (C) Heatmap of top differentially expressed genes upon JTE-607 treatment. Replication-dependent histones are colored in blue. Expression is plotted as transformed expression value. (D) mRNA expression of H2B and H3 in MiaPaCa2 cells treated with JTE-607. *, P<0.05, **, P<0.01, ***, P<0.001, Ordinary one-way ANOVA with Dunnett's multiple comparisons test. (E) DSeq2 normalized counts of H3F3A and H2AZ1 histone variants (replication-independent) in Panc1 cells treated with JTE-607. […]. (F-H) Volcano plots of Spearman's correlation of CPSF3 and all histone genes (F), replication-dependent histone genes (G) and replication-independent histone genes (H). Each dot represents a histone gene. Blue and red dots denote positive and negative correlation, respectively. (Spearman=−0.15>R>0.15, P<0.05).
As JTE-607 has been previously administered to patients with no cytotoxic effects, we wanted to determine the mechanism underlying the ability of JTE-607 to attenuate PDAC cell proliferation. […] The Spearman's correlation for CPSF3 and 98 histone genes from the CPTAC database (Spearman=−0.15>R>0.15, P<0.05) (FIG. 4F) were calculated. […] A signature by selecting 50 RD histones and assessed PDAC patient survival based on gene expression was generated.
RNA isolation and quantitative PCR. […] Data were analyzed in Microsoft Excel and graphed using GraphPad Prism (v 9.3.0).

PDAC cells = assay: BrdU incorporation assay; assay type: cell-based; conditions: within 8 hours
Procedure: (§1) Finally, we sought to determine how JTE-607-mediated depletion of RD histones led to defects in cell viability. As RD histones are required for cell cycle progression, we assessed the effects of JTE-607 on cell cycle distribution. […] In contrast, JTE-607 arrested Panc1 and MiaPaCa2 PDAC cells in S-phase of the cell cycle within 24 hours (FIGS. 7A and 7B). To corroborate the impact of CPSF3 knockdown on cell cycle, CPSF3 was transiently knocked-down with siRNA in Panc1 and HPNE cells (FIGS. 13D, 7C). CPSF3 knockdown induced cell cycle arrest in Panc1 cells with minimal effect on HPNE cells (FIGS. 7D and 7E). However, unlike CPSF3 inhibition-induced cell cycle arrest at S-phase, CPSF3 knockdown cells arrested at G2. […] To more specifically investigate the timing and extent of S-phase arrest upon JTE-607 treatment, BrdU incorporation was examined in a time-dependent manner (FIG. 7F). […] This is in support of previous reports where histone defects slow the progression of cells during S-phase. Therefore, JTE-607 destabilizes chromatin and attenuates PDAC cell proliferation through S-phase cell cycle arrest.
BrdU incorporation assay. […] Cells were analyzed by flow cytometry immediately and a compensation step was performed. Data were analyzed by FCS Express software (v7.06.0015).

HPNE cells = assay: Cell cycle analysis (propidium iodide FACS); assay type: cell-based, human
Procedure: as §1
(§2) Cell cycle analysis. Cells were trypsinized and resuspended in 1×PBS, then fixed with ice-cold 70% ethanol for 1 hour at −20° C. Cells were then washed with cold 1×PBS and incubated with RNaseA (200 μg/ml) at 37° C. for 1 hour. Propidium iodide (40 μg/ml) was then added, incubated for 1 hour in the dark and analyzed by FACS at 488 nm. Data were analyzed by FCS express software (v7.06.0015).

MiaPaCa2 cells [2] = assay: Cell cycle analysis (propidium iodide FACS); assay type: cell-based, human; conditions: within 24 hours
Procedure: as §1, §2

Panc1 cells = assay: Cell cycle analysis (propidium iodide FACS); assay type: cell-based, human; conditions: within 24 hours
Procedure: as §1, §2

[3] = test system: C-reactive protein, IL-10 and IL-1ra; conditions: in humans; cited from earlier work
[4] = test system: human acute myeloid leukemia (AML) and Ewing's sarcoma cells; conditions: in vitro; cited from earlier work
HeLa-TI cells = assay: Silenced GFP reporter derepression (chromatin destabilization) by microscopy and flow cytometry; assay type: cell-based; conditions: dose- and time-dependent
Procedure: Therefore, a Micrococcal Nuclease (MNase) assay was performed to assess relative chromatin condensation. In this assay, protein-free DNA is digested by MNase, producing DNA fragmentation patterns that are indicators of whether chromatin is in a condensed or relaxed state. […] To assess chromatin destabilization in a living cell, the HeLa-TI cell line model that has a silenced GFP reporter within a heterochromatic region of the genome was utilized. […] Therefore, GFP expression in HeLa-TI cells was monitored upon JTE-607 treatment by both fluorescence microscopy and flow cytometry.

## CCOC(=O)[C@H](Cc1ccccc1)NC(=O)c1cc(Cl)c(OCCN2CCN(C)CC2)c(Cl)c1O [JTE-607]
MiaPaCa2 cells [1]
  RD histone mRNA expression (H2B, H3): decrease
PDAC cells
  cell cycle arrest phase (BrdU incorporation): early to mid S-phase
HPNE cells
  cell cycle distribution: no impact on cell cycle distribution
MiaPaCa2 cells [2]
  cell cycle arrest phase: S-phase
Panc1 cells
  cell cycle arrest phase: S-phase
[3]
  endotoxin-induced production of C-reactive protein, IL-10 and IL-1ra: inhibited
[4]
  apoptosis: induces apoptosis
HeLa-TI cells
  GFP expression: induced GFP expression to levels comparable with CBL0137
